According to patent US8575153B2 (Kowa Company, Ltd., priority 2008, dated 2013):

target: Recombinant human JAK3 enzyme (JAK3 kinase region; Ala795-Ser1124) (Homo sapiens, UniProt P52333); assay: JAK3 Kinase Assay (Kinase-Glo luminescent, ATP consumption); conditions: read-out: Inhibition rate (%) of JAK3 kinase activity
Sequence (P52333 795-1124): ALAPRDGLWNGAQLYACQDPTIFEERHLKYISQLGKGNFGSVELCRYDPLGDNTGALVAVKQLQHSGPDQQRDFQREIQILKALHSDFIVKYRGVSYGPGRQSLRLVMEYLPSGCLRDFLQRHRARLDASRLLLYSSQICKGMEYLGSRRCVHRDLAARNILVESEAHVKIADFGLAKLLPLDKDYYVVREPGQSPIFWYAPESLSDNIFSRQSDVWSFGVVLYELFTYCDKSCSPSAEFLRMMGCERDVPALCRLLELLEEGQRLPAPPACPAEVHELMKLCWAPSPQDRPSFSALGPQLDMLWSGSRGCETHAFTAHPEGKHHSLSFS
Procedure: Recombinant human JAK3 enzyme (JAK3 kinase region; Ala795-Ser1124) was purchased from Carna Biosciences, Inc.
The reaction was conducted in a kinase buffer (reaction volume: a total of 50 μl) containing 8 mM MOPS (pH 7.0), 0.2 mM EDTA, a test compound solution prepared to each concentration and 0.5 μg/ml JAK3 enzyme using a 96-well polystyrene plate (clear-bottom white-wall). […] After incubating them at room temperature for 2 hours, 50 μl of Kinase-Glo Luminescent Kinase Assay reagent (Promega) was added to each well, and further incubated at room temperature for 10 minutes. Using a chemiluminescence microplate reader MicroLumat LB96P (Berthold), chemiluminescence intensity was measured to quantitate the amount of ATP remaining after reaction. From the amount of ATP consumed in the phosphorylation reaction, the inhibition rate (%) of JAK3 kinase activity was determined.

Compound	inhibition at 0.1 µM	inhibition at 1 µM
CCN(CC)CCN1CCN(c2ccc(Nc3cc(NCc4cccc(F)c4F)c(C(N)=O)cn3)cc2)CC1 [Example 237, 6-[(4-{4-[2-(diethylamino)ethyl]piperazin-1-yl}phenyl)amino]-4-[(2,3-difluorobenzyl)amino]pyridine-3-carboxyamide]	78%	
CCN(CC)C(=O)N1CCN(c2ccc(Nc3cc(NCc4ccccc4)c(C(N)=O)cn3)cc2)CC1 [Example 282, 4-(benzylamino)-6-({4-[(4-diethylcarbamoyl)piperazin-1-yl]phenyl}amino)pyridine-3-carboxyamide]	89%	
NC(=O)c1cnc(Nc2ccc(N3CCC(O)CC3)cc2)cc1NCc1ccccc1Cl [Example 186, 4-[(2-chlorobenzyl)amino]-6-{[4-(4-hydroxypiperidino)phenyl]amino}pyridine-3-carboxyamide]	93%	
NC(=O)c1cnc(-n2cnc3ccccc32)cc1NCc1cc(F)cc(F)c1 [Example 365, 6-(1H-benzimidazol-1-yl)-4-[(3,5-difluorobenzyl)amino]pyridine-3-carboxyamide]		62%
NC(=O)c1cnc(Nc2ccc(N3CCNCC3)cc2)cc1NCc1c(F)cccc1F [Example 223, 4-[(2,6-difluorobenzyl)amino]-6-{[4-(piperazin-1-yl)phenyl]amino}pyridine-3-carboxyamide]	81%	
N#CCC(=O)N1CCCN(c2ccc(Nc3cc(NCc4ccccc4)c(C(N)=O)cn3)cc2)CC1 [Example 268, 4-(benzylamino)-6-({4-[4-(cyanoacetyl)-1,4-diazepan-1-yl]phenyl}amino)pyridine-3-carboxyamide]	65%	
C[C@@H]1CN(c2ccc(Nc3cc(NCc4cc(F)cc(F)c4)c(C(N)=O)cn3)cc2)C[C@H](C)N1 [Example 141, 4-[(3,5-difluorobenzyl)amino]-6-({4-[(3R,5S)-3,5-dimethylpiperazin-1-yl]phenyl}amino) pyridine-3-carboxyamide]	83%	
CN1CCCN(c2ccc(Nc3cc(NCc4ccccc4)c(C(N)=O)cn3)cc2)CC1 [Example 244, 4-(benzylamino)-6-{[4-(4-methyl-1,4-diazepan-1-yl)phenyl]amino}pyridine-3-carboxyamide]	59%	
NC(=O)c1cnc(Nc2ccc(S(N)(=O)=O)cc2)cc1NCc1cc(F)cc(F)c1 [Example 328, 4-[(3,5-difluorobenzyl)amino]-6-[(4-sulfamoylphenyl)amino]pyridine-3-carboxyamide]	70%	
Cc1ccc(S(=O)(=O)n2cc(-c3cc(NCc4cc(F)cc(F)c4)c(C(N)=O)cn3)c3cccnc32)cc1 [Example 370, 4-[(3,5-difluorobenzyl)amino]-6-{1-[(4-methylphenyl)sulfonyl}-1H-pyrrolo[2,3-b]pyridin-3-yl}pyridine-3-carboxyamide]		13%
NC(=O)c1cnc(Nc2ccc(N3CCC(C(=O)N(CCO)CCO)CC3)cc2)cc1NCc1ccccc1 [Example 177, 4-(benzylamino)-6-[(4-{4-[bis(2-hydroxyethyl)carbamoyl]piperidino}phenyl)amino]pyridine-3-carboxyamide]	84%	
NC(=O)c1cnc(Nc2ccc(N3CCOCC3)cc2)cc1NCc1cccc([N+](=O)[O-])c1 [Example 102, 6-[(4-morpholinophenyl)amino]-4-[(3-nitrobenzyl)amino]pyridine-3-carboxyamide]	53%	
NC(=O)c1cnc(Nc2ccc(N3CCOCC3)cc2)cc1NCc1cccc(Cl)c1 [Example 81, 4-[(3-chlorobenzyl)amino]-6-[(4-morpholinophenyl)amino]pyridine-3-carboxyamide]	72%	
NC(=O)c1cnc(Nc2ccc(N3CCOCC3)cc2)cc1NC1CCCCC1 [Example 345, 4-cyclohexylamino-6-[(4-morpholinophenyl)amino]pyridine-3-carboxyamide]		79%
NC(=O)c1cnc(Nc2ccc(N3CCCS3(=O)=O)cc2)cc1NCc1ccccc1 [Example 307, 4-(benzylamino)-6-{[4-(1,1-dioxo-1,2-thiazolidin-2-yl)phenyl]amino}pyridine-3-carboxyamide]	71%	
NC(=O)c1cnc(Nc2ccc(N3CCOCC3)cc2)cc1NCc1cc(F)ccc1F [Example 93, 4-[(2,5-difluorobenzyl)amino]-6-[(4-morpholinophenyl)amino]pyridine-3-carboxyamide]	86%	
COc1ccccc1CNc1cc(Nc2ccc(N3CCOCC3)cc2)ncc1C(N)=O [Example 73, 4-[(2-methoxybenzyl)amino]-6-[(4-morpholinophenyl)amino]pyridine-3-carboxyamide]	56%	
NC(=O)c1cnc(Nc2ccc(N3CCOCC3)cc2)cc1NCc1cccnc1 [Example 353, 6-[(4-morpholinophenyl)amino]-4-[(pyridin-3-ylmethyl)amino}pyridine-3-carboxyamide]		65%

Compound	inhibition at 0.1 µM	inhibition at 1 µM
CCN(CC)CCN1CCN(c2ccc(Nc3cc(NCc4ccccc4)c(C(N)=O)cn3)cc2)CC1 [Example 236, 4-(benzylamino)-6-[(4-{4-[2-(diethylamino)ethyl]piperazin-1-yl}phenyl)amino]pyridine-3-carboxyamide]	83%	
NC(=O)c1cnc(Nc2ccc(N3CCC(CCO)CC3)cc2)cc1NCc1cccc([N+](=O)[O-])c1 [Example 180, 6-({4-[4-(2-hydroxyethyl)piperidino]phenyl}amino)-4-[(3-nitrobenzyl)amino]pyridine-3-carboxyamide]	63%	
N#CCC(=O)N1CCN(c2ccc(Nc3cc(NCc4cc(F)cc(F)c4)c(C(N)=O)cn3)cc2)CC1 [Example 264, 6-({4-[4-(cyanoacetyl)piperazin-1-yl]phenyl}amino)-4-[(3,5-difluorobenzyl)amino]pyridine-3-carboxyamide]	92%	
CC(C)N1CCN(c2ccc(Nc3cc(NCc4ccccc4)c(C(N)=O)cn3)cc2)CC1 [Example 146, 4-(benzylamino)-6-({4-[4-(propan-2-yl)piperazin-1-yl]phenyl}amino)pyridine-3-carboxyamide]	78%	
NC(=O)c1cnc(Nc2ccc(N3CCOCC3)cc2)cc1NCC1CCCCC1 [Example 361, 4-[(cyclohexylmethyl)amino]-6-[(4-morpholinophenyl)amino]pyridine-3-carboxyamide]		83%
NC(=O)c1cnc(Nc2ccc(N3CCOCC3)cc2)cc1NCc1ccccc1Cl [Example 80, 4-[(2-chlorobenzyl)amino]-6-[(4-morpholinophenyl)amino]pyridine-3-carboxyamide]	79%	
CCN(CC)CC(=O)N1CCN(c2ccc(Nc3cc(NCc4cccc(F)c4F)c(C(N)=O)cn3)cc2)CC1 [Example 205, 6-({4-[4-(N,N-diethylglycyl)piperazin-1-yl]phenyl}amino}-4-[(2,3-difluorobenzyl)amino]pyridine-3-carboxyamide]	98%	
CN1CCC(Oc2ccc(Nc3cc(NCc4ccccc4)c(C(N)=O)cn3)cc2)CC1 [Example 52, 4-(benzylamino)-6-({4-[(1-methylpiperidin-4-yl)oxy]phenyl}amino)pyridine-3-carboxyamide]	72%	
NC(=O)c1cnc(Nc2ccc(N3CCOCC3)cc2)cc1NCc1ccccn1 [Example 363, 6-[(4-morpholinophenyl)amino]-4-[(pyridin-2-ylmethyl)amino]pyridine-3-carboxyamide]		67%
N#Cc1ccc2ncn(-c3cc(NCc4cc(F)cc(F)c4)c(C(N)=O)cn3)c2c1 [Example 366, 6-(6-cyano-1H-benzimidazol-1-yl)-4-[(3,5-difluorobenzyl)amino]pyridine-3-carboxyamide]		9%
CCN(CC)CCN1CCN(c2cccc(Nc3cc(NCc4cc(F)cc(F)c4)c(C(N)=O)cn3)c2)CC1 [Example 239, 6-[(3-{4-[2-(diethylamino)ethyl]piperazin-1-yl}phenyl)amino]-4-[(3,5-difluorobenzyl)amino]pyridine-3-carboxyamide]	57%	
NC(=O)c1cnc(Nc2ccc(N3CCNCC3)cc2)cc1NCc1cccnc1 [Example 355, 6-{(4-(piperazin-1-yl)phenyl]amino}-4-[(pyridin-3-ylmethyl)amino}pyridine-3-carboxyamide]		92%
CC(C)N1CCN(c2ccc(Nc3cc(NCc4cc(F)cc(F)c4)c(C(N)=O)cn3)cc2)CC1 [Example 151, 4-[(3,5-difluorobenzyl)amino]-6-({4-[4-(propan-2-yl)piperazin-1-yl]phenyl}amino)pyridine-3-carboxyamide]	69%	
COCCNS(=O)(=O)c1ccc(Nc2cc(NCc3cc(F)cc(F)c3)c(C(N)=O)cn2)cc1 [Example 330, 4-[(3,5-difluorobenzyl)amino]-6-({4-[(2-methoxyethyl)sulfamoyl]phenyl}amino)pyridine-3-carboxyamide]	59%	
CS(=O)(=O)Nc1ccc(Nc2cc(NCc3cccc([N+](=O)[O-])c3)c(C(N)=O)cn2)cc1 [Example 160, 4-[(3-nitrobenzyl)amino]-6-({4-[(methylsulfonyl)amino]phenyl}amino)pyridine-3-carboxyamide]	66%	
CCN(CC)C(=O)Nc1ccc(Nc2cc(NCc3ccccc3)c(C(N)=O)cn2)cc1 [Example 279, 4-(benzylamino)-6-({4-[(diethylcarbamoyl)amino]phenyl}amino)pyridine-3-carboxyamide]	59%	
CC(C)N1CCN(c2ccc(Nc3cc(NCc4cccnc4)c(C(N)=O)cn3)cc2)CC1 [Example 356, 6-({4-[4-(propan-2-yl)piperazin-1-yl]phenyl}amino)-4-[(pyridin-3-ylmethyl)amino]pyridine-3-carboxyamide]		92%
N#CCC(=O)N1CCN(c2ccc(Nc3cc(NCc4cccc(F)c4F)c(C(N)=O)cn3)cc2)CC1 [Example 263, 6-({4-[4-(cyanoacetyl)piperazin-1-yl]phenyl}amino)-4-[(2,3-difluorobenzyl)amino]pyridine-3-carboxyamide]	98%	
